Tests used:
[1] = test system: primary asthmatic human bronchial epithelial cells; assay: IL-17A- or IL-17F-mediated cytokine response by primary asthmatic human bronchial epithelial cells; assay type: cell-based; conditions: Epithelial cell, 0.25 μM, positive control, data not shown, read-out: inhibition of measured cytokines
Description: The virally immortalized, normal human bronchial epithelial cell line BEAS-2B was purchased from ATCC (Manassas, Va.). Primary bronchial epithelial cells isolated from a patient diagnosed with asthma were obtained from Lonza (Allendale, N.J.). Both cells were maintained in complete Bronchial Epithelial Cell Growth Medium (BEGM) (Lonza). Cells were seeded at 1e5 cells/ml and incubated at 37° C. in a humidified atmosphere at 5% CO2 overnight to adhere. Cells were pre-treated with test compounds (10 μM down by ⅕ in a 3- or 4-point serial dilution series) for 1 h at 37° C. in a humidified atmosphere at 5% CO2. DMSO at a final concentration of 0.1% served as the non-inhibited control. Budesonide (Selleck Chemicals, Houston, Tex.), a clinically approved glucocorticoid steroid for the treatment of asthma, was tested as a positive control at 0.25 μM. Cells were stimulated with 50 ng/ml of either human recombinant IL-17A or IL-17F (eBioscience, San Diego, Calif.), for 48 h. Supernatant was then collected and analyzed for cytokine concentrations using the Bio-Plex Pro Human Cytokine 17-Plex Panel (Bio-Rad Laboratories, Hercules, Calif.) according to the manufacturer's instructions. Magnetic beads were measured on the Bio-Plex MAGPIX multiplex reader instrument using the accompanying xPONENT 4.2 acquisition software (Bio-Rad Laboratories). Data were analyzed via the Bio-Plex Manager software v6.1 (Bio-Rad Laboratories). For the primary asthmatic bronchial epithelial cells, five (+IL-17F) to thirteen (+IL-17A) cytokines were in range of detection under the conditions used. […] Select cytokines were analyzed for comparison using the BEAS-2B cell line.
BLQ: cytokine levels were below limits of quantitation.

[2] = target: T1, BRD4 bromodomain domain I [BRD4(1)] (Homo sapiens, UniProt O60885); assay: BRD4 bromodomain domain 1 inhibition assay (TR-FRET); assay type: binding
T1 construct: BRD4 bromodomain domain I [BRD4(1)]; purchased Cayman Chemicals
How it was run: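 0.5% DMSO, in triplicate, using Cayman BRD4(1) TR-FRET protocol with slight modification. 670/620 nm ratio normalized to 10 μM JQ1, with DMSO control set as 0% inhibition.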

[3] = target: T2, recombinant human ERK5 catalytic domain (Homo sapiens, UniProt Q13164); assay: Recombinant human ERK5 radiometric (HotSpot) assay; assay type: biochemical; conditions: 10 μM ATP, 20 μM myelin basic protein substrate; read-out: rhERK5 IC50
T2 construct: Recombinant human ERK5 catalytic domain radiometric assays; purchased Reaction Biology, Corp (Malvern, Pa.), which ran the assay as a service
T2 sequence (Q13164 55-347 limits assumed): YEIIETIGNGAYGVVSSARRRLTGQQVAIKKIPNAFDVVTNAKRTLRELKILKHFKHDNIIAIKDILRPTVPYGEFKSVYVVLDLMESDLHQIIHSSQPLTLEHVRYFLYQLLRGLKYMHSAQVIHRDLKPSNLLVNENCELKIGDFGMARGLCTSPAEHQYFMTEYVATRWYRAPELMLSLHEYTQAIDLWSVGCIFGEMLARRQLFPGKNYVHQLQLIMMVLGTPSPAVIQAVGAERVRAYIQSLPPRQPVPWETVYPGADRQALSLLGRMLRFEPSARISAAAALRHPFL
Description: In this example, potency of the compounds in recombinant human ERK5 was assayed.
Recombinant human ERK5 catalytic domain radiometric assays were performed by Reaction Biology, Corp (Malvern, Pa.). The HotSpot radiometric assay is based on conventional filter-binding assays (Nature Biotechnology (2011) 29: 1039-1045). Compounds were tested at 20 μM down by ⅓ in a 10 point serial dilution series. Briefly, [γ-33P]-ATP was used as the tracer along with 10 μM cold ATP to label ERK5 in the presence of 20 μM myelin basic protein substrate.

human PBMCs = assay: Human PBMC TNF-α response to endotoxin (ELISA); assay type: cell-based; conditions: 0.1 μg/ml LPS 16 h, read-out: EC50 for the inhibition of the human PBMC TNF-α response to endotoxin, ave. ± S.D.
How it was run: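 PBMCs at 2e6 cells/ml in RPMI 1640 with 10% charcoal-dextran-treated FBS were pre-treated 1 h at 37 °C with compound (4-point 1:5 dilution from 10 μM). Stimulation with 0.1 μg/ml E. coli 0111:B4 LPS for 16 h; TNF-α measured by ELISA (A450) in 25-fold diluted supernatant.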

[4] = test system: collagen-induced arthritis mouse model; assay: Collagen-induced arthritis (CIA) mouse model: in-life disease score, paw thickness; assay type: in vivo, mouse (DBA/1J); conditions: for change in group average disease score - mean, Day versus Day 21 (start of treatment): Tofacitinib 15 mg/kg PO BID from D21
[5] = test system: collagen-induced arthritis mouse model; assay: Collagen-induced arthritis (CIA) mouse model: histopathology of tibiofemoral and tarsal/phalangeal joints; assay type: in vivo, mouse (DBA/1J)
[6] = Group 2 (n=10): Tofacitinib 15 mg/kg PO BID D21-D42
[7] = Group 2: Tofacitinib 15 mg/kg PO BID D21-D42

| Structure (SMILES) | IC50 [2] | IC50 [3] | EC50 (human PBMCs) | other results |
| --- | --- | --- | --- | --- |
| CCCC1O[C@@H]2C[C@H]3[C@@H]4CCC5=CC(=O)C=C[C@]5(C)[C@H]4[C@@H](O)C[C@]3(C)[C@]2(C(=O)CO)O1 (stereo partly drawn) [Budesonide, reference compound] |  |  |  | inhibition at […] [1]: < 50% |
| Cc1cccc2c1Oc1cc(N[C@H]3CC[C@H](O)CC3)ncc1N(C)C2=O [Compound T96] | 2 to 5 µM | > 0.2 µM | 1.1 ± 0.86 µM |  |
| CCOc1cc(C(=O)N2CCN(C3CCN(C)CC3)CC2)ccc1Nc1cc2c(cn1)N(C)C(=O)c1ccccc1S2 [Compound T99] | > 5 µM | 0.05 to 0.2 µM | 3.22 ± 2.75 µM |  |
| CCOc1cc(C(=O)N2CCN(C3CCN(C)CC3)CC2)ccc1Nc1cc2c(cn1)N(C)C(=O)c1cccc(F)c1O2 [Compound T103] | > 5 µM | 0.05 to 0.2 µM | 1.23 ± 1.31 µM |  |
| CCOc1cc(C(=O)N2CCN(C3CCN(C)CC3)CC2)ccc1Nc1cc2c(cn1)N(C)C(=O)c1cccc(Cl)c1O2 [Compound T104] | 2 to 5 µM | 0.05 to 0.2 µM | 0.51 ± 0.24 µM |  |
| CCOc1cc(C(=O)N2CCN(C3CCN(C)CC3)CC2)ccc1Nc1cc2c(cn1)N(C)C(=O)c1cccc(OC)c1O2 [Compound T105] | < 2 µM | 0.05 to 0.2 µM | 0.43 ± 0.28 µM |  |
| CCOc1cc(C(=O)N2CCN(C3CCN(C)CC3)CC2)ccc1Nc1cc2c(cn1)N(C)C(=O)c1cccc(C)c1O2 [Compound T106] | < 2 µM | 0.05 to 0.2 µM | 0.27 ± 0.17 µM |  |
| CCOc1cc(C(=O)N2CCN(C3CCN(C)CC3)CC2)ccc1Nc1cc2c(cn1)N(C)C(=O)c1c(F)ccc(F)c1O2 [Compound T107] | < 2 µM | 0.02 to 0.05 µM | 0.3 ± 0.25 µM |  |
| CCO[C@H]1CC[C@H](Nc2cc3c(cn2)N(C)C(=O)c2ccccc2N3C)CC1 [Compound T110] | > 5 µM | 0.05 to 0.2 µM | 2.74 ± 1.87 µM |  |
| CCOC1CCCC[C@H]1Nc1cc2c(cn1)N(C)C(=O)c1ccccc1N2C (stereo partly drawn) [Compound T113] | > 5 µM | > 0.2 µM | 2.95 ± 2.17 µM |  |
| CN1C(=O)c2ccccc2N(C)c2cc(N[C@H]3CC[C@@H](O)CC3)ncc21 [Compound T114] | > 5 µM | > 0.2 µM | 3.07 ± 3.35 µM |  |
| CN1C(=O)c2ccccc2Sc2cc(N[C@H]3CC[C@H](O)CC3)ncc21 [Compound T116] | > 5 µM | > 0.2 µM | 1.66 ± 1.53 µM |  |
| CN1C(=O)c2ccccc2Oc2cc(N[C@H]3CC[C@H](O)CC3)ncc21 [Compound T117] | > 5 µM | > 0.2 µM | 2.7 ± 2.72 µM |  |
| CN1C(=O)c2cccc(F)c2N(C)c2cc(N[C@H]3CC[C@H](O)CC3)ncc21 [Compound T118] | > 5 µM | > 0.2 µM | 2.43 ± 1.78 µM |  |
| CN1C(=O)c2c(F)cccc2N(C)c2cc(N[C@H]3CC[C@H](O)CC3)ncc21 [Compound T119] | < 2 µM | 0.05 to 0.2 µM | 0.98 ± 0.93 µM |  |
| CN1C(=O)c2cccc(Cl)c2N(C)c2cc(N[C@H]3CC[C@H](O)CC3)ncc21 [Compound T120] | > 5 µM | > 0.2 µM | 2.39 ± 2.11 µM |  |
| COc1cccc2c1N(C)c1cc(N[C@H]3CC[C@H](O)CC3)ncc1N(C)C2=O [Compound T122] | > 5 µM | 0.05 to 0.2 µM | 3.49 ± 3 µM |  |
| CCOc1cc(C(=O)N2CCN(C3CCN(C)CC3)CC2)ccc1Nc1cc2c(cn1)N(C)C(=O)c1c(F)cccc1N2C [Compound T124] | < 2 µM | 0.02 to 0.05 µM | 0.31 ± 0.22 µM |  |
| CCOc1cc(C(=O)N2CCN(C3CCN(C)CC3)CC2)ccc1Nc1cc2c(cn1)N(C)C(=O)c1cccc(F)c1N2C [Compound T125] | 2 to 5 µM | 0.05 to 0.2 µM | 0.79 ± 0.2 µM |  |
| CCOc1cc(C(=O)N2CCN(C3CCN(C)CC3)CC2)ccc1Nc1cc2c(cn1)N(C)C(=O)c1cccc(Cl)c1N2C [Compound T126] | > 5 µM | 0.05 to 0.2 µM | 0.97 ± 0.83 µM |  |
| CN1C(=O)c2ccccc2N(C)c2cc(N[C@H]3CC[C@H](NS(N)(=O)=O)CC3)ncc21 [Compound T128] | 2 to 5 µM | 0.05 to 0.2 µM | 2.51 ± 1.47 µM |  |
| CN1C(=O)c2ccccc2N(C)c2cc(N[C@H]3CC[C@H](NS(=O)(=O)C4CC4)CC3)ncc21 [Compound T129] | 2 to 5 µM | 0.05 to 0.2 µM | 1.79 ± 1.44 µM |  |
| CN1C(=O)c2ccccc2N(C)c2cc(N[C@H]3CC[C@H](N4CCCS4(=O)=O)CC3)ncc21 [Compound T136] | > 5 µM | 0.05 to 0.2 µM | 2.03 ± 1.91 µM |  |
| C[C@H]1C[C@H](Nc2cc3c(cn2)N(C)C(=O)c2ccccc2N3C)CC[C@H]1O [Compound T137] | > 5 µM | 0.05 to 0.2 µM | 1.11 ± 0.99 µM |  |
| C[C@@H]1CCN(C(=O)CC#N)C[C@@H]1N(C)c1ncnc2[nH]ccc12 [Tofacitinib, reference compound] |  |  |  | change in group average disease score - mean, Day versus Day 21 (start of treatment) ([4]; Day 21): 0.0; change in group average disease score - mean, Day versus Day 21 (start of treatment) ([4]; Day 24): 0.3; change in group average disease score - mean, Day versus Day 21 (start of treatment) ([4]; Day 26): 0.9; change in group average disease score - mean, Day versus Day 21 (start of treatment) ([4]; Day 28): 1.8; change in group average disease score - mean, Day versus Day 21 (start of treatment) ([4]; Day 31): 2.3; change in group average disease score - mean, Day versus Day 21 (start of treatment) ([4]; Day 33): 2.6; change in group average disease score - mean, Day versus Day 21 (start of treatment) ([4]; Day 35): 2.7; change in group average disease score - mean, Day versus Day 21 (start of treatment) ([4]; Day 37): 2.2; change in group average disease score - mean, Day versus Day 21 (start of treatment) ([4]; Day 39): 2.5; percent reduction in overall disease and total paw scores ([4]; treatment Day 21-42, Tofacitinib 15 mg/kg BID PO, doses in Table 28): about 55%; histopathology of hind-limb joints (knee, paw/tarsal), in words ([5]; Day 42, H&E): less effective at mitigating cartilage and periosteal erosion at the knee and ulceration and synovial hyperplasia than 46; Animals with normal tarsal joints (% of total n in group) [5, 6]: 40%; Number of animals with normal tarsal joints [5, 6]: 4; Tibiofemoral joint score: cartilage erosion/ulceration [5, 7]: 16.3; Tibiofemoral joint score: inflammation [5, 7]: 16.3; Tibiofemoral joint score: periosteal proliferation/erosion [5, 7]: 7.8; Tibiofemoral joint score: synovial hyperplasia [5, 7]: 5.0 |
